Measurements from publication PMC7482845, “G10 is a direct activator of human STING” (PLoS ONE, 2020).

Assays:
[1] = target: T1, R232 variant of human STING (Homo sapiens, UniProt Q86WV6, H232R); experiment: Luciferase (ISRE.ISG reporter) assay in HEK293T cells stably expressing R232 hSTING; format: cell-based; settings: for EC50: HEK293T cells expressing R232 hSTING, luciferase reporter, read-out: HEK.R232 EC50; for activity against R232 STING, in words: HEK.R232 cellular assay
T1 construct: the ER fraction from R232.STING transfected HEK293T cells which contained full length STING
Text: (§1) • a) Stable STING expressing cells. Stable HEK293T STING-expressing cell lines were generated using plasmids purchased from Invivogen, CA, USA, that contain STING cDNA cloned into the pUNO-1 vector under the hEF1-HTLV promoter as well as the Blasticidin selection cassette. The human STING plasmids corresponding to the R232, H232 and HAQ variants were directly procured from Invivogen while the AQ and Q variants were created by mismatch PCR using cDNA from HAQ.STING and R232.STING variants respectively. These vectors were individually transfected into HEK293T cells using Lipofectamine (Invitrogen) and transfected cells were expanded under Blasticidin selection. These cells were further subjected to clonal selection using the limiting dilution method to obtain clonally pure populations of HEK293T cells expressing each of the five human STING variants. Clones with minimal ligand independent activation of STING were chosen for cellular experiments. • b) N-His R232.hSTING HEK293T cells. HEK293T cells stably expressing N-His R232.hSTING were generated by the following described method. N-His R232.hSTING.pcDNA Myc B plasmid was transfected into HEK293T cells using Lipofectamine reagent (Invitrogen) and the transfected cells were selected under Hygromycin. Stably STING expressing HEK293T cells thus selected were further subjected to single cell clonal selection using the limiting dilution method to obtain a clonally pure population of HEK293T cells expressing the human R232 STING variant.
[…] clonally selected HEK293T-hSTING-Luciferase cells or control HEK293T-Luciferase cells were seeded in 384-well plates in growth medium and stimulated with known STING agonists or novel compounds. […]

HAQ STING (THP-1 cells) = target: T2, HAQ STING (THP-1 cells) (Homo sapiens, UniProt Q86WV6, G230A/R293Q/R71H); experiment: THP1 cellular assay (EC50); format: cell-based; settings: for THP-1 EC50 / EC50: THP-1 cells (HAQ STING); for activation of THP1 cells, in words: THP1 cellular assay
T2 construct: THP1 cells constitutively express the HAQ variant of human STING; host or cells: THP-1

[2] = target: T3, recombinant CTT domain of R232 STING (Homo sapiens, UniProt Q86WV6, H232R); experiment: In vitro kinase assay, recombinant CTT domain of R232 STING plus recombinant TBK1; format: biochemical; settings: STING source not stated (S3 Fig)
T3 construct: corresponding to the soluble domain of STING (138 to 379 aa) protein; purchased Cayman Chemicals (STING); Invitrogen (TBK1) 22816 (STING); A31514 (TBK1)
Protocol: 50ng of recombinant STING protein (Cayman Chemicals Cat# 22816) corresponding to the soluble domain of STING (138 to 379 aa) protein or 1 μl of ER fraction (8mg/ml) containing full length STING from R232.hSTING was incubated with 20 ng of recombinant full length TBK1 protein (Invitrogen, Cat# A31514) in the presence/absence of test compound in 20 μl reaction buffer (50mM Tris-HCl of pH 7.4, 100mM NaCl, 5mM MgCl2, 5mM MnCl2, 10% glycerol, 0.2mM Na3VO4, 20mM β-glycero-PO4, 0.5mM ATP) and 0.01% BSA at 30 °C for 45 min. The reaction was quenched by addition of 2 μl of 10X EDTA to a final concentration of […]. Samples were treated with 4x gel loading dye followed by electrophoresis in 10% SDS-PAGE gels and transferred to Immobilon-P membranes (Millipore). […] Anti-rabbit HRP labelled secondary antibody (Abcam) and Clarity Max™ western ECL substrate (Biorad, Cat# 1705062) were used for visualization of bands using a BioRad XRS plus imager.

[3] = test system: multiple STING variants overexpressed in HEK293T cells; experiment: Luciferase reporter assay of STING variants overexpressed in HEK293T cells (Compound 8); format: cell-based, human; settings: HEK293T cells (S4 Fig)
Text: as §1, with “HEK293T cells stably expressing N-His R232.hSTING were generated by the following described method. N-His R232.hSTING.pcDNA Myc B plasmid was transfected into HEK293T cells using Lipofectamine reagent (Invitrogen) and the transfected cells were selected under Hygromycin. Stably STING expressing HEK293T cells thus selected were further subjected to single cell clonal selection using the limiting dilution method to obtain a clonally pure population of HEK293T cells expressing the human R232 STING variant.” left out
5 x 10^5 clonally selected HEK293T-hSTING-Luciferase cells or control HEK293T-Luciferase cells were seeded in 384-well plates in growth medium and stimulated with known STING agonists or novel compounds. Supernatants were removed after 20 hours of treatment and secretory reporter gene activity was measured using the Quanti-Luc detection system (Invivogen) on a Spectramax i3X luminometer.

[4] = test system: Human STING variants (HEK293T cells); experiment: Phosphorylation of STING variants overexpressed in HEK293T cells (Compound 8); format: cell-based; settings: HEK293T cells (S5 Fig)
Protocol: 5 x 10^5 cells were seeded in 24-well plates in 500 μl growth medium and stimulated with novel compounds at 10μM. After 2 hours of treatment cells were harvested by centrifugation and cell pellets were lysed in RIPA buffer (20mM Tris-Cl, 150mM NaCl, 0.5mM EDTA, 1% NP40, 0.05% SDS) containing 1x phosphatase inhibitor cocktail 3 (Sigma) and 1x protease inhibitor (Roche) to extract the soluble fraction of protein. 10 μg of extracted protein was electrophoresed in 10% SDS-PAGE gels and transferred onto Immobilon-P membranes (Millipore). […] Anti-rabbit HRP label secondary antibody (Abcam) and Clarity Max™ western ECL substrate (Biorad—cat# 1705062) were used for visualization of bands using a BioRad XRS plus imager.

STING in human PBMCs = target: T4, STING in human PBMCs (Homo sapiens, UniProt Q86WV6); experiment: Phosphorylation of STING in human PBMCs; format: cell-based; settings: multiple donors (S6 Fig)
T4 construct: endogenous in cells; host or cells: human PBMCs, multiple donors

[5] = target: T5, STING in human tumor lines (Homo sapiens, UniProt Q86WV6); experiment: Phosphorylation of STING in human tumor lines; format: cell-based; settings: S7 Fig
T5 construct: endogenous in cells

human STING = test system: human STING; set-up: method as in PMID 23585680; settings: any variant of human STING; cited from earlier work

T2 sequence (Q86WV6 whole entry R71H/G230A/R293Q): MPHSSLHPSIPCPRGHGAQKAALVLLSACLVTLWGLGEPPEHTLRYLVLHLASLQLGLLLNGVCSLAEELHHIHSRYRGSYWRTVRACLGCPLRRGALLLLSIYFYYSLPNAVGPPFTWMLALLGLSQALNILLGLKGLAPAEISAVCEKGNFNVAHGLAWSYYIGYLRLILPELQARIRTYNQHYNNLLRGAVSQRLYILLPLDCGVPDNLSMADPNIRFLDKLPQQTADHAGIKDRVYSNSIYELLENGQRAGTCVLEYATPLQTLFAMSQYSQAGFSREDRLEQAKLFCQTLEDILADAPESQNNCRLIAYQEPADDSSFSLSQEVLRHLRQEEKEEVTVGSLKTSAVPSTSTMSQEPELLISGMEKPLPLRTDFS
T1 sequence (Q86WV6 whole entry H232R): as the sequence (Q86WV6 whole entry R71H/G230A/R293Q) above, with H71R, A230G, H232R, Q293R counted along it
T4 sequence (Q86WV6 whole entry): as the sequence (Q86WV6 whole entry R71H/G230A/R293Q) above, with H71R, A230G, Q293R counted along it
T5 sequence (Q86WV6 whole entry): as the sequence (Q86WV6 whole entry R71H/G230A/R293Q) above, with H71R, A230G, Q293R counted along it
T3 sequence (Q86WV6 138-379 H232R): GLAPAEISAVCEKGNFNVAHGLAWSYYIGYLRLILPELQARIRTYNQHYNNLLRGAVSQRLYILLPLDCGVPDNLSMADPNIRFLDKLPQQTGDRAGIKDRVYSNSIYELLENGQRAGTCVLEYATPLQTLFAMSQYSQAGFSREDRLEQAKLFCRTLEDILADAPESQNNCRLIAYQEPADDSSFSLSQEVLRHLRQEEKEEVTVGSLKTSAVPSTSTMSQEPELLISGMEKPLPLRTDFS

Row | Structure (SMILES) | EC50 [1] [nM] | activation of THP1 cells, in words (HAQ STING (THP-1 cells)) | EC50 (HAQ STING (THP-1 cells)) [nM] | activity against R232 STING, in words [1] | further results
1 | O=C(NCc1ccco1)c1ccc2c(c1)N(Cc1c(Cl)cccc1Cl)C(=O)CS2 [Compound 1, 4-(2,6-Dichlorobenzyl)-N-(furan-2-ylmethyl)-3-oxo-3,4-dihydro-2H-benzo[b][1,4]thiazine-6-carboxamide] | 2160 |  |  |  | THP-1 EC50 (HAQ STING (THP-1 cells)): Nil @ 30uM
2 | O=C(NCc1ccco1)c1ccc2c(c1)N(Cc1c(F)cccc1F)C(=O)CS2 [Compound 2, 4-(2,6-Difluorobenzyl)-N-(furan-2-ylmethyl)-3-oxo-3,4-dihydro-2H-benzo[b][1,4]thiazine-6-carboxamide] | 3970 |  |  |  | THP-1 EC50 (HAQ STING (THP-1 cells)): Nil @ 30uM
3 | O=C(NCc1ccco1)c1ccc2c(c1)N(Cc1ccccc1)C(=O)CS2 [Compound 3, 1-Benzyl-N-(furan-2-ylmethyl)-2-oxo-2,3-dihydro-1H-benzo[b][1,4]thiazine-7-carboxamide] | 9130 |  |  |  | THP-1 EC50 (HAQ STING (THP-1 cells)): Nil @ 30uM
4 | O=C(NCc1ccc(F)cc1F)c1ccc2c(c1)N(Cc1c(F)cccc1Cl)C(=O)CS2 [Compound 4, 4-(2-Chloro-6-fluorobenzyl)-N-(2,4-difluorobenzyl)-3-oxo-3,4-dihydro-2H-benzo[b][1,4]thiazine-6-carboxamide] | 292 | very weak activation | > 30000 |  | 
5 | O=C(NCc1c(F)cc(F)cc1F)c1ccc2c(c1)N(Cc1c(F)cccc1Cl)C(=O)CS2 [Compound 5, 4-(2-Chloro-6-fluorobenzyl)-3-oxo-N-(2,4,6-trifluorobenzyl)-3,4-dihydro-2H-benzo[b][1,4]thiazine-6-carboxamide] | 188 | very weak activation | > 10000 |  | 
6 | CC1Sc2ccc(C(=O)NCc3c(F)cc(F)cc3F)cc2N(Cc2cc(F)cc(F)c2)C1=O (stereo not shown) [Compound 10] | 421 |  | ~6000 |  | 
7 | Cc1ccc2c(=O)c3cccc(CC(=O)O)c3oc2c1C [DMXAA, 5,6 dimethyl xanthenone 4-acetic acid] |  |  |  |  | activation of human STING variants (human STING): does not activate

Continued, in another order:

Row | EC50 [1] [nM] | activation of THP1 cells, in words (HAQ STING (THP-1 cells)) | EC50 (HAQ STING (THP-1 cells)) [nM] | activity against R232 STING, in words [1] | Structure (SMILES) | further results
8 | 160 |  | > 10000 | sharp increases in activity | COc1cc(F)c(CN2C(=O)CSc3ccc(C(=O)NCc4c(F)cc(F)cc4F)cc32)c(F)c1 [Compound 6, 4-(2,6-Difluoro-4-methoxybenzyl)-3-oxo-N-(2,4,6-trifluorobenzyl)-3,4-dihydro-2H-benzo[b][1,4]thiazine-6-carboxamide] | 
9 | 71.6 | significant activity | 1380 | sharp increases in activity | O=C(NCc1c(F)cc(F)cc1F)c1ccc2c(c1)N(Cc1c(F)cc(O)cc1F)C(=O)CS2 [Compound 7, 4-(2,6-Difluoro-4-hydroxybenzyl)-3-oxo-N-(2,4,6-trifluorobenzyl)-3,4-dihydro-2H-benzo[b][1,4]thiazine-6-carboxamide] | 
10 | 122 | sub-micromolar activity | 944 | sub-micromolar activity | CC1Sc2ccc(C(=O)NCc3c(F)cc(F)cc3F)cc2N(Cc2c(F)cccc2Cl)C1=O (stereo not shown) [Compound 8, 4-(2-Chloro-6-fluorobenzyl)-2-methyl-3-oxo-N-(2,4,6-trifluorobenzyl)-3,4-dihydro-2H-benzo[b][1,4]thiazine-6-carboxamide] | activity in the cell-free pSTING assay [2]: confirmed activity; activation of multiple STING variants, luciferase reporter assay [3]: activated; phosphorylation of human STING variants [4]: phosphorylated; phosphorylation of STING in human PBMCs (STING in human PBMCs): phosphorylated STING; phosphorylation of STING in human tumor lines [5]: phosphorylated STING
11 | 96 | sub-micromolar activity | 412 | sub-micromolar activity | CC1Sc2ccc(C(=O)NCc3c(F)cc(F)cc3F)cc2N(Cc2c(F)ccc(O)c2Cl)C1=O (stereo not shown) [Compound 9, 4-(2-Chloro-6-fluoro-3-hydroxybenzyl)-2-methyl-3-oxo-N-(2,4,6-trifluorobenzyl)-3,4-dihydro-2H-benzo[b][1,4]thiazine-6-carboxamide] | 
12 | 91 |  | ~8000 |  | CC1Sc2ncc(C(=O)NCc3cc4ccccc4o3)cc2N(Cc2cc(F)cc(F)c2)C1=O (stereo not shown) [Compound 12, N-(Benzofuran-2-ylmethyl)-1-(3,5-difluorobenzyl)-3-methyl-2-oxo-2,3-dihydro-1H-pyrido[2,3-b][1,4]thiazine-7-carboxamide] | 
